Results reported in patent US9180159B2, “Use of cell-permeable peptide inhibitors of the JNK signal transduction pathway for the treatment of chronic or non-chronic inflammatory digestive diseases” (Xigen Inflammation Ltd., priority 2008, dated 2015).
Non-standard residues stand in square brackets, D forms with d.

How the values were obtained:
[1] = tested on: transient global ischemia; details: Carboni et al. 2004; cited from earlier work
[2] = mice treated with 1-methyl-4-phenyl tetrahydropyridine; cited from earlier work
[3] = tested on: cultured chick embryonic dorsal root ganglion, sympathetic, ciliary and motor neurons; details: Borasio et al. 1998; cited from earlier work
[4] = tested on: primary embryonic cultures and differentiated PC12 cells; details: at dosages that inhibit activation of JNKs; after trophic withdrawal; cited from earlier work
TNBS-induced colitis [5] = assay: TNBS-induced colitis (IBD study) in BALB/c mice, Example 12; assay type: in vivo; details: for clinical score: XG-102 any dose, route or schedule, Sulfasalazine 10 mg/kg PO daily
Procedure: b) Constitution of test groups and dose levels • The table below lists the experimental groups comprising the study.
c) Test Procedures • Colitis was induced by administration of TNBS […], as a single or repeated daily doses (see above).
d) Observations and Examinations • i) Clinical signs • Throughout the duration of the above experiment, careful clinical examinations were carried out and recorded. Observations included changes external appearance, e.g. of the skin, fur, eyes, mucous membranes, occurrence of secretions and excretions (e.g. diarrhea), and autonomic activity. Changes in gait, posture and response to handling, as well as the presence of bizarre behavior, tremors, convulsions, sleep and coma were also noted. • ii) Body weights • Determination of individual body weight of animals was made on a daily basis. • iii) Clinical assessment of colitis • Body weight, stool consistency and bleeding per rectum were all recorded daily and served as the parameters of disease severity score:
• iv) Gross pathology of the colon • On the last day of the experiment, animals were euthanized and the colon was removed for gross pathology evaluation according to the following score: […]

TC-3 cell cultures = assay: Cellular import and intracellular persistence of fluorescein-labeled peptides in TC-3 cells; assay type: cell-based; details: 1 μM
Procedure: The ability of the L- and D-enantiomeric forms of TAT and TAT-IB1(s) peptides (“TAT-IB peptides”) to enter cells was evaluated. L-TAT, D-TAT, L-TAT-IB1(s), and D-TAT-IB1(s) peptides [SEQ ID NOs: 5, 6, 9 and 12, respectively] were labeled by N-terminal addition of a glycine residue conjugated to fluorescein. Labeled peptides (1 μM) were added to TC-3 cell cultures, which were maintained as described in Example 3. At predetermined times cells were washed with PBS and fixed for five minutes in ice-cold methanol-acetone (1:1) before being examined under a fluorescence microscope. Fluorescein-labeled BSA (1 μM, 12 moles/mole BSA) was used as a control.
Little to no signal was present at 48 hours.

THP-1 cells = assay: LPS-induced cytokine and chemokine release in THP-1 cells; assay type: cell-based
Text: (§1) XG-102 (SEQ ID NO:11) inhibits cytokine release in both myeloid and lymphoid cell lines, reducing LPS-induced TNFa, IL-6 and MCP-1 release in THP-1 cells (Panels A-C) and PMA & ionomycin-induced IFNg, IL-6 and IL-2 production in Jurkat cells (Panels D-F).

murine macrophages = assay: LPS-induced cytokine release in murine macrophages; assay type: cell-based
[6] = tested on: Primary cultured macrophages; assay: Incorporation of XG-102 into primary cultured macrophages, detected with a specific antibody; assay type: cell-based; details: incubated with peptide and extensively washed
Procedure: FIG. 8 Primary cultured macrophages were incubated with XG-102 (SEQ ID NO: 11) and extensively washed.

TNBS-induced colitis [7] = assay: TNBS-induced colitis in mice (FIG. 13); assay type: in vivo; details: subcutaneous, 50 and 100 mg/kg
Text: JNK is activated in macrophages and lymphocytes of patients with inflammatory bowel disease, a response correlated with increased TNFa, IL-6 and IFNg production in lesions.

murine T cells = assay: PMA & ionomycin-induced cytokine production in murine T cells; assay type: cell-based
[8] = tested on: primary lymphoid and myeloid cells; assay: Cytotoxicity in primary cells (FIG. 12 Panel F); assay type: cell-based, murine
Jurkat cells = assay: PMA & ionomycin-induced cytokine production in Jurkat cells; assay type: cell-based
Text: as §1

[9] = tested on: recombinant JNK1, JNK2 and JNK3; assay: Solid phase kinase assay, phosphorylation of c-Jun, ATF2 and Elk1 by recombinant JNKs; assay type: biochemical; details: GST-Jun (aa 1-73), 0-250 μM dosage study
Procedure: The effects of the peptides on JNKs-mediated phosphorylation of their target transcription factors were investigated in vitro. Recombinant and non activated JNK1, JNK2 and JNK3 were produced using a TRANSCRIPTION AND TRANSLATION rabbit reticulocyte lysate kit (Promega) and used in solid phase kinase assays with c-Jun, ATF2 and Elk1, either alone or fused to glutathione-S-transferase (GST), as substrates. Dose response studies were performed wherein L-TAT or L-TAT-IB1(s) peptides (0-25 μM) were mixed with the recombinant JNK1, JNK2, or JNK3 kinases in reaction buffer (20 mM Tris-acetate, 1 mM EGTA, 10 mM p-nitrophenyl-phosphate (pNPP), 5 mM sodium pyrophosphate, 10 mM p-glycerophosphate, 1 mM dithiothreitol) for 20 minutes. The kinase reactions were then initiated by the addition of 10 mM MgCl2 and 5 pCi ^33P-dATP and 1 μg of either GST-Jun (aa 1-89), GST-AFT2 (aa 1-96) or GST-ELK1 (aa 307-428). GST-fusion proteins were purchased from Stratagene (La Jolla, Calif.).
Ten μL of glutathione-agarose beads were also added to the mixture. Reaction products were then separated by SDS-PAGE on a denaturing 10% polyacrylamide gel. Gels were dried and subsequently exposed to X-ray films (Kodak). […] The ability of D-TAT, D-TAT-IB1(s) and L-TAT-IB1(s) peptides (0-250 μM dosage study) to inhibit GST-Jun (aa 1-73) phosphorylation by recombinant JNK1, JNK2, and JNK3 by were analyzed as described above. Overall, D-TAT-IB1(s) peptide decreased JNK-mediated phosphorylation of c-Jun, but at levels approximately 10-20 fold less efficiently than L-TAT-IB1(s).

TC-3 cells = assay: IL-1 induced pancreatic beta-cell death in TC-3 cells treated with peptides; assay type: cell-based; details: one single addition 1 μM
Procedure: Inhibition of IL-1 induced pancreatic beta-cell death by the D-TAT-IB1(s) peptide was analyzed. TC-3 cells were incubated as described above for 30 minutes with one single addition of the indicated peptides (1, μM), then IL-1 (10 ng/ml) was added.
Apoptotic cells were then counted after two days of incubation with IL-1 by use of Propidium Iodide and Hoechst 33342 nuclear staining. A minimum of 1,000 cells were counted for each experiment.
Long term inhibition of IL-1P induced cell-death by the D-TAT-IB1 peptide was also analyzed. TC-3 cells were incubated as above for 30 minutes with one single addition of the indicated peptides (1 μM), then IL-1 (10 ng/ml) was added, followed by addition of the cytokine every two days. Apoptotic cells were then counted after 15 days of incubation with IL-1 by use of propidium iodide and Hoechst 33342 nuclear staining. […] A minimum of 1.000 cells were counted for each experiment.

JNK = details: JBDs; Dickens et al. Science 277: 693 (1997); cited from earlier work

## N#CC(c1ccnc(NCCc2cccnc2)n1)c1nc2ccccc2s1 (stereo not shown) [AS601245]
[1]
  delayed loss of hippocampal CA1 neurons: significant protection

## CCSCc1ccc2c(c1)c1c3c(c4c5cc(CSCC)ccc5n5c4c1n2[C@H]1C[C@](O)(C(=O)OC)[C@]5(C)O1)CNC3=O [CEP-1347]
[2]
  neuronal survival: promotes neuronal survival
[3]
  long term-survival of neurons: promote long term-survival
[4]
  neuronal survival: promotes neuronal survival

## O=C(O)c1cc(/N=N/c2ccc(S(=O)(=O)Nc3ccccn3)cc2)ccc1O [Sulfasalazine, reference compound]
TNBS-induced colitis [5]
  clinical score: reduction in the clinical score
TNBS-induced colitis [5]; end of study, 10 mg/kg PO daily
  gross pathology score of the colon: effective in reducing the gross pathology completely

## Fluorescein-labeled BSA: Fluorescein-labeled BSA (1 μM, 12 moles/mole BSA) used as a control [reference compound]
TC-3 cell cultures
  entry into cells: did not enter the cells

## NH2-DQSRPVQPFLNLTTPRKPRPPRRRQRRKKRG-COOH (H-[dD][dQ][dS][dR][dP][dV][dQ][dP][dF][dL][dN][dL][dT][dT][dP][dR][dK][dP][dR][dP][dP][dR][dR][dR][dQ][dR][dR][dK][dK][dR]G-OH) [XG-102]
THP-1 cells
  LPS-induced IL-6 release: reducing
  LPS-induced MCP-1 release: reducing
  LPS-induced TNFa release: reducing
TNBS-induced colitis [5]; 0.01-1000 μg/kg SC or PO, single or daily for 7 days
  clinical signs: No abnormalities were observed
TNBS-induced colitis [5]; SC or PO
  disease recovery (conclusion): active in enhancing diseases recovery
TNBS-induced colitis [5]
  clinical score: an effect equivalent to or better than the one observed with the commonly used reference drug sulfasalazine
TNBS-induced colitis [5]; mouse, in vivo
  body weights (TNBS induced weight loss): either prevented the weight loss or ameliorated the symptoms and supported recovery
TNBS-induced colitis [5]; whole study
  mortality rate: No mortality was recorded
Murine macrophages
  LPS-induced IL-6 release: reducing
  LPS-induced Rantes release: reducing
  LPS-induced TNFa release: reducing
[6]
  incorporation into primary macrophages: strongly incorporated
TNBS-induced colitis [7]
  DAI: diminishing
  protection from TNBS-induced colitis: protects mice from TNBS-induced colitis
  rectal bleeding: diminishing
  weight loss: diminishing
TC-3 cell cultures
  entry into cells: efficiently and rapidly (less than five minutes) entered cells
Murine T cells
  PMA & ionomycin-induced IFNg production: reducing
  PMA & ionomycin-induced TNFa production: reducing
[8]
  cytotoxicity at concentrations inhibiting cytokine release: non-cytotoxic concentrations
Jurkat cells
  PMA & ionomycin-induced IFNg production: reducing
  PMA & ionomycin-induced IL-2 production: reducing
  PMA & ionomycin-induced IL-6 production: reducing
[9]
  decrease of JNK-mediated phosphorylation of c-Jun, fold less efficient than L-TAT-IB1(s): 10-20 fold
TC-3 cells; IL-1 10 ng/ml every two days
  long term protection from IL-1 induced cell-death, 15 days: able to confer long term (15 day) protection

## NH2-GRKKRRQRRR-COOH (H-GRKKRRQRRR-OH) [L-TAT]
TC-3 cell cultures
  entry into cells: efficiently and rapidly (less than five minutes) entered cells

## NH2-IPSPSVEEPHKHRPTTLRLTTLGAQDS-COOH (H-IPSPSVEEPHKHRPTTLRLTTLGAQDS-OH) [IB2-long]
JNK
  efficiency in binding JNK relative to c-Jun or ATF2: approximately 100 fold

## NH2-PGTGCGDTYRPKRPTTLNLFPQVPRSQDT-COOH (H-PGTGCGDTYRPKRPTTLNLFPQVPRSQDT-OH) [IB1-long]
JNK
  efficiency in binding JNK relative to c-Jun or ATF2: approximately 100 fold

## NH2-RRRQRRKKRG-COOH (D-amino acids; Description of sequence Peptide D-TAT (see Table 1))
TC-3 cell cultures
  entry into cells: efficiently and rapidly (less than five minutes) entered cells

## NH2-TDQSRPVQPFLNLTTPRKPRYTDPPRRRQRRKKRG-COOH (HELM PEPTIDE1{[dT].[dD].[dQ].[dS].[dR].[dP].[dV].[dQ].[dP].[dF].[dL].[dN].[dL].[dT].[dT].[dP].[dR].[dK].[dP].[dR].[dY].[dT].[dD].[dP].[dP].[dR].[dR].[dR].[dQ].[dR].[dR].[dK].[dK].[dR].G}$$$$V2.0; SMILES CC(C)C[C@@H](NC(=O)[C@@H](Cc1ccccc1)NC(=O)[C@H]1CCCN1C(=O)[C@@H](CCC(N)=O)NC(=O)[C@H](NC(=O)[C@H]1CCCN1C(=O)[C@@H](CCCNC(=N)N)NC(=O)[C@@H](CO)NC(=O)[C@@H](CCC(N)=O)NC(=O)[C@@H](CC(=O)O)NC(=O)[C@H](N)[C@H](C)O)C(C)C)C(=O)N[C@H](CC(N)=O)C(=O)N[C@H](CC(C)C)C(=O)N[C@@H](C(=O)N[C@@H](C(=O)N1CCC[C@@H]1C(=O)N[C@H](CCCNC(=N)N)C(=O)N[C@H](CCCCN)C(=O)N1CCC[C@@H]1C(=O)N[C@H](CCCNC(=N)N)C(=O)N[C@H](Cc1ccc(O)cc1)C(=O)N[C@@H](C(=O)N[C@H](CC(=O)O)C(=O)N1CCC[C@@H]1C(=O)N1CCC[C@@H]1C(=O)N[C@H](CCCNC(=N)N)C(=O)N[C@H](CCCNC(=N)N)C(=O)N[C@H](CCCNC(=N)N)C(=O)N[C@H](CCC(N)=O)C(=O)N[C@H](CCCNC(=N)N)C(=O)N[C@H](CCCNC(=N)N)C(=O)N[C@H](CCCCN)C(=O)N[C@H](CCCCN)C(=O)N[C@H](CCCNC(=N)N)C(=O)NCC(=O)O)[C@H](C)O)[C@H](C)O)[C@H](C)O) [D-TAT-IB1]
TC-3 cells; IL-1 10 ng/ml
  IL-1 induced apoptosis after two days: decreased IL-1 induced apoptosis to a similar extent as L-TAT-IB peptides
